Reference: patent publication US7576109B2, “1,3,4-oxadiazol-2-ones as PPAR delta modulators and their use thereof” (Aventis Pharmaceuticals Inc., priority 2004, dated 2009)

Tested on: rat oligodendrocyte cultures
Assay: Primary rat oligodendrocyte differentiation assay (myelin basic protein expression)
Assay type: cell-based
Conditions: primary rat oligodendrocytes, compared to untreated controls
Text: • 1. Primary rat oligodendrocyte progenitor cells are obtained from the neocortex of newborn (postnatal days 2-3) rats or mice and are enriched, after removal of microglia, by mechanical separation from the astrocytic monolayer using a modification of the technique originally described by McCarthy and de Vellis (1980). • 2. Remove the meninges from neonatal rat brain and mechanically dissociate tissue. Plate cells on T75 flasks and feed cells with DMEM/F12+10% FBS. • 3. Collect oligodendrocytes growing on the astrocyte bed layer by shaking-off method fourteen days after the original prep date. Centrifuge the suspension and resuspend the cell pellet in serum free media (SFM; DMEM combined with 25 μg/ml transferring, 30 nM triiodothyronine, 20 nM hydrocortisone, 20 nM progesterone, 10 nM biotin, 1× trace elements, 30 nM selenium, 1 μg/ml putrescine, 0.1% BSA, 5 U/ml PenStrep, 10 μg/ml insulin) supplemented with the following growth factors: Platelet derived growth factor-AA (PDGF) and fibroblast growth factor-2 (FGF). • 4. Plate the cells on PDL-coated dishes and incubate at 37° C. with 6-7% CO2. • 5. Media components are replaced every 48 hr to keep the cells in a progenitor state. Progenitor Cell Passaging to Increase Cell Numbers for Screening Assays: • 1. When the culture are confluent, rinse the culture with PBS, add trypsin and incubate for ˜2-3 min at 37° C. • 2. Neutralize and centrifuge the cell suspension at 900 g for 5 min. • 3. Resuspend the cell pellet in SFM+PDGF/FGF. • 4. Feed the cells with fresh growth factors every 48 hrs to keep enrich for rapidly dividing progenitor cells. • 5. Cells are passaged no more than 4-5 times prior to experimental assays. • 6. All experiments involving oligodendrocyte progenitor cells were done using cells that were continuously maintained under these conditions. Greater than 95% of all cells were A2B5 immunopositive and expressed 2′3′-cyclic nucleotide 3′-phosphodiesterase II mRNA. • 7. To generate mature oligodendrocytes, 24 h after plating progenitor cells were switched to SFM supplemented with or without IGF-I and grown under these conditions for 7 d prior to experimental assays. • 8. Alternatively, the enriched rat Central Glia-4 (CG4) progenitor cell line may be used, which is maintained in base media (DMEM, with 2 mM glutamine, 1 mM sodium pyruvate, biotin (40 nM), insulin (1 μM) and N1) supplemented with 30% conditioned media from the B-104 neuroblastoma cell line. To induce differentiation, CG4 cells are switched to base media with 1% fetal calf serum (removed after 2 days) and insulin (500 nM). A2B5 and MBP immunoreactivity is used to confirm >95% enrichment in immature and mature cultures, respectively. Rat/Mouse Culture Compound Treatment: • 1. […]

## Cc1nc(-c2ccc(C(F)(F)F)cc2)sc1COc1ccc(-c2n[nH]c(=O)o2)cc1 [Example 10, 5-{4-[4-Methyl-2-(4-trifluoromethyl-phenyl)-thiazol-5-ylmethoxy]-phenyl}-3H-[1,3,4]oxadiazol-2-one]
Concentration 10 μM
  Fold Increase in Myelin Basic Protein Expression in Oligodendrocyte Differentiation Assay: 1.5 fold (10)

## CCCCc1nc(-c2ccc(C(F)(F)F)cc2)sc1COc1ccc(-c2n[nH]c(=O)o2)c(Cl)c1 [Example 23]
Concentration 1 μM
  Fold Increase in Myelin Basic Protein Expression in Oligodendrocyte Differentiation Assay: 2 fold (1)

## CCCCc1nc(-c2ccc(C(F)(F)F)cc2)sc1COc1ccc(Cc2n[nH]c(=O)o2)cc1 [Example 31, 5-{4-[4-Butyl-2-(4-trifluoromethyl-phenyl)-thiazol-5-ylmethoxy]-benzyl}-3H-[1,3,4]oxadiazol-2-one]
Concentration 1 μM
  Fold Increase in Myelin Basic Protein Expression in Oligodendrocyte Differentiation Assay: 2 fold (1)

## Cc1nc(-c2ccc(C(F)(F)F)cc2)sc1COCc1ccc(-c2n[nH]c(=O)o2)cc1 [Example 14]
Concentration 1 μM
  Fold Increase in Myelin Basic Protein Expression in Oligodendrocyte Differentiation Assay: 1.5 fold (1)
